Activity calls are given as the source filed them. The rule behind the calls is not given here.
Assays:
[1] = Ratio of paclitaxel Kd to compound Kd for displacement of fluorescent N-AB-PT from tubulin
A2780 [2] = experiment: Cytotoxicity against human A2780 cells after 4 days by sulforhodamine B assay; assay type: functional, cell-based; details: A2780, 96 h
A2780 [3] = experiment: Ratio of compound IC50 to paclitaxel IC50 for cytotoxic activity against human A2780 cells; assay type: functional
PC-3 [4] = experiment: Cytotoxicity against human PC3 cells after 4 days by sulforhodamine B assay; assay type: functional, cell-based; details: PC-3, 96 h
[5] = Effect on tubulin polymerization at 50 uM by cold-induced disassembly assay
[6] = Ratio of compound ED50 to paclitaxel ED50 for inhibition of tubulin assembly
PC-3 [7] = experiment: Ratio of compound IC50 to paclitaxel IC50 for cytotoxic activity against human PC3 cells; assay type: functional
[8] = Inhibition of tubulin assembly
[9] = Displacement of fluorescent N-AB-PT from tubulin by spectrofluorimetry
P388 = experiment: Ratio of docetaxel to compound in cytotoxic activity against mouse P388 cells; assay type: functional

Compound | Ratio [1] | IC50 (A2780 [2]) | Ratio IC50 (A2780 [3]) | IC50 (PC-3 [4]) | Activity [5] | Ratio ED50 [6] | Ratio IC50 (PC-3 [7]) | ED50 [8] | Ka [9] | Ratio (P388)
CC(=O)O[C@H]1C(=O)[C@@]2(C)[C@H]([C@H](OC(=O)c3ccccc3)[C@]3(O)C[C@H](OC(=O)[C@H](O)[C@H]4NC(=O)Oc5ccccc54)C(C)=C1C3(C)C)[C@]1(OC(C)=O)CO[C@@H]1C[C@@H]2O | 150 | > 20000 nM | 1900 | > 5000 nM | inactive | 50 | 1900 | > 25000 nM |  | 
CC(=O)O[C@H]1C(=O)[C@@]2(C)[C@H]([C@H](OC(=O)c3ccccc3)[C@]3(O)C[C@H](OC(=O)[C@H](O)[C@@H](NC(=O)c4ccccc4)c4ccccc4)C(C)=C1C3(C)C)[C@]1(OC(C)=O)CO[C@@H]1C[C@@H]2O [PACLITAXEL] |  |  |  | 1.4 nM |  |  |  | 480 nM | 4.76e+07 M⁻¹ | 
CC(=O)O[C@H]1C(=O)[C@@]2(C)[C@H]([C@H](OC(=O)c3ccccc3)[C@@]3(O)C[C@@H](OC(=O)[C@@H](O)[C@@H](NC(=O)c4ccccc4)c4ccccc4C)C(C)=C1C3(C)C)[C@@]1(OC(C)=O)CO[C@@H]1C[C@@H]2O (stereo in doubt) |  |  |  |  |  | 5.1 |  |  |  | 
COC(=O)N[C@@H](c1ccccc1)[C@@H](O)C(=O)O[C@H]1C[C@@]2(O)[C@@H](OC(=O)c3ccccc3)[C@@H]3[C@]4(OC(C)=O)CO[C@@H]4C[C@H](O)[C@@]3(C)C(=O)[C@H](OC(C)=O)C(=C1C)C2(C)C |  | 9 nM |  | 2 nM |  |  |  | 430 nM | 1.11e+07 M⁻¹ | 150
